Test results as given in US20240002846A1, “COMPOSITIONS AND METHODS FOR THE DIAGNOSIS AND TREATMENT OF ITCH” (Duke University, priority 2020, published 2024).
Entries after “also recorded” stand apart in the source; their conditions may differ.

What was measured:
pERK expression = assay: pERK Western blot in cultured mouse keratinocytes; type: cell-based; conditions: inhibitor 10 μM
Procedure: Primary mouse keratinocytes were cultured following previous protocol (Chen et al. J. Biol. Chem. 2016, 291, 10252-10262). The epidermis from the back skin of newborn WT or keratinocyte-Trpv4 cKO mice was separated from the dermis by floating the skin on 0.25% trypsin (Gibco, Gaithersburg, MD) for 14-18 h at 4° C. Basal keratinocytes were separated from the cornified sheets by filtration through a […] cell strainer. Keratinocytes were plated on collagen I-coated dishes or glass coverslips and grown in EME media (Gibco, Gaithersburg, MD) containing 8% chelex (Bio-rad, Hercules, CA)-treated FBS with the final Ca^2+ adjusted to 0.05 mM, bovine pituitary extract (50 μg/mL), epidermal growth factor (5 ng/mL), and lx antibiotics/antimycotics (Gibco, Gaithersburg, MD) in a humidified incubator with 5% CO2 at 37° C. for 5-7 days until use. To knockdown Trpv4 in isolated keratinocytes from newborn keratinocyte-Trpv4 cKO mice, cells were treated with 4-OH tamoxifen at 500 nM for 72 h.
Western Blot. Routine procedures were followed (Chen et al. J. Biol. Chem. 2016, 291, 10252-10262, Chen et al. Pain 2014, 155, 2662-2672). […] Immunoblot band intensity was quantitated using the software Image J and ERK served as a control for pERK expression.

hTRPV4 = biological target: T1, hTRPV4 (Homo sapiens, UniProt Q9HBA0); assay: Inside-out patch-clamp, hTRPV4; type: biochemical; conditions: 5 μM LPC 18:1; WT-hTRPV4
T1 construct: expressed in transfected cells; host or cells: HEK293 (ATCC CRL-1573)
Procedure: (§1) Cell culture and transfection. HEK293 cells (ATCC® CRL-1573) were cultured on poly-D-lysine coated coverslips in 24-well plate containing DMEM media with high-Glucose (Gibco, Gaithersburg, MD) supplemented with 10% fetal bovine serum (FBS, HyClone Laboratories, Logan, UT) and 100 U/mL of penicillin/streptomycin (Gibco, Gaithersburg, MD). Cell cultures were maintained with 5% of CO2 in a humidified incubator at 37° C. HEK cells were transfected with rat or human wild type or mutant TRPV4 channels with EGFP or YFP coupled to their C-termini (1.5 μg of plasmid for excised patch clamp and Ca^2+ imaging and 200 ng for single-channel experiments). […]
(§2) Electrophysiology. Currents were recorded using the inside-out configuration of the patch-clamp technique (Hamill et al. Pflugers Arch. 1981, 391, 85-100). […] Mean current values in response to GSK1016790A or LPC 18:1 were measured after channel activation had reached the steady-state (˜3 min). […] Currents were low-pass filtered at 2 kHz and sampled at 10 kHz with an EPC 10 amplifier (HEKA Elektronik) and were plotted and analyzed with Igor Pro (Wavemetrics Inc.).

hTRPV4-R269H = biological target: T2, hTRPV4-R269H (Homo sapiens, UniProt Q9HBA0, R269H); assay: Inside-out patch-clamp, hTRPV4-R269H; type: biochemical; conditions: 5 μM LPC 18:1
T2 construct: expressed in transfected cells; host or cells: HEK293
Procedure: as §1, §2

T2 sequence (Q9HBA0 whole entry R269H): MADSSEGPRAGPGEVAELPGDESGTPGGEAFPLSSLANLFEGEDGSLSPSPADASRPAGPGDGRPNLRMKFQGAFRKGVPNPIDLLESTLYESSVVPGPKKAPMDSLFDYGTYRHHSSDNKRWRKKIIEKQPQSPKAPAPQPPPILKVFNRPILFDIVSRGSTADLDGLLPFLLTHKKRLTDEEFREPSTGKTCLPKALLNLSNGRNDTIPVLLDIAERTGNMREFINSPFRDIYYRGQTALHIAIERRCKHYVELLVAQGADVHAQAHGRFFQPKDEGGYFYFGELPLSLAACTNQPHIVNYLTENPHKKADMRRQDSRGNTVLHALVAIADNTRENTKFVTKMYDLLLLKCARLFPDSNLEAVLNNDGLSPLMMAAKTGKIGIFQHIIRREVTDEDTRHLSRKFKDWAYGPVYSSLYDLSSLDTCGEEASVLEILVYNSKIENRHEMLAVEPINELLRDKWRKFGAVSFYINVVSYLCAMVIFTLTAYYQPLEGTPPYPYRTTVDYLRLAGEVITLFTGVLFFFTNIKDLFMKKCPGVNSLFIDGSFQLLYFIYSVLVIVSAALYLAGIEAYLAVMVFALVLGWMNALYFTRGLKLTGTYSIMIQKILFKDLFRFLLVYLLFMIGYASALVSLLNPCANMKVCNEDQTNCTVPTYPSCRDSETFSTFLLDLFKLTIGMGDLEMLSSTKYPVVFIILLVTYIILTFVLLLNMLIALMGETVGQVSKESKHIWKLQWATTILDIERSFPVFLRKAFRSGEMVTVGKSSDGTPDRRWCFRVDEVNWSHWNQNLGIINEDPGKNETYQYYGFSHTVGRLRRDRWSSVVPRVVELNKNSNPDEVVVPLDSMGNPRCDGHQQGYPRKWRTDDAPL
T1 sequence (Q9HBA0 whole entry): as the sequence (Q9HBA0 whole entry R269H) above, with H269R counted along it

Compound | effect on LPC-increased pERK expression (pERK expression) | average activation of currents, normalized to 1 μM GSK101 (hTRPV4) [%] | average activation of currents, normalized to 1 μM GSK101 (hTRPV4-R269H) [%]
Cc1c(C(=O)Nc2cccc(C(F)(F)F)c2)cc(-c2ccccc2)n1CCCN1CCOCC1 [HC067047] | eliminated the increase; also recorded: abolished |  | 
LPC 18:1 |  | 48±6 | 42±6
